Laboratory results published in BindingDB's records for doi:10.7270/Q27D2X8F (n/a, 1993).

Key:
[1] = target: T1, 5-hydroxytryptamine receptor 1A (Homo sapiens, UniProt P08908); assay: The compound was evaluated for its ability to displace [3H]-8-OH-DPAT from 5-hydroxytryptamine 1A receptor in cellular brain membranes
T1 sequence (P08908 whole entry): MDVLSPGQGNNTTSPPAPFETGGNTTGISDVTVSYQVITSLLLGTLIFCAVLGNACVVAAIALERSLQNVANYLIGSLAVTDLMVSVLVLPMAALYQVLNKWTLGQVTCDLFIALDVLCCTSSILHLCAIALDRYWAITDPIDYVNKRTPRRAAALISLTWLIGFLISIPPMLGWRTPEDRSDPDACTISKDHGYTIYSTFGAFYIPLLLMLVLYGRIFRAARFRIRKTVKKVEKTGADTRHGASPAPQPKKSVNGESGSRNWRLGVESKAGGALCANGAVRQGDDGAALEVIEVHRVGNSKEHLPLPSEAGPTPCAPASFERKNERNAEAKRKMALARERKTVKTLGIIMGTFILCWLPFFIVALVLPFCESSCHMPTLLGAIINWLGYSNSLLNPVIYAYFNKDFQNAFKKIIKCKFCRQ

[2] = target: 5-hydroxytryptamine receptor 1B (Homo sapiens, UniProt P28222); assay: The compound was evaluated for its ability to displace [3H]5-HT from 5-hydroxytryptamine 1B receptor in cellular brain membranes
[3] = target: Serotonin 2 (5-HT2) receptor (Homo sapiens, UniProt P28223+P28335+P41595); assay: The compound was evaluated for its ability to displace [3H]ketanserin from 5-hydroxytryptamine 2 receptor in cellular brain membranes
Serotonin 2 (5-HT2) receptor, sequence (P28223 whole entry): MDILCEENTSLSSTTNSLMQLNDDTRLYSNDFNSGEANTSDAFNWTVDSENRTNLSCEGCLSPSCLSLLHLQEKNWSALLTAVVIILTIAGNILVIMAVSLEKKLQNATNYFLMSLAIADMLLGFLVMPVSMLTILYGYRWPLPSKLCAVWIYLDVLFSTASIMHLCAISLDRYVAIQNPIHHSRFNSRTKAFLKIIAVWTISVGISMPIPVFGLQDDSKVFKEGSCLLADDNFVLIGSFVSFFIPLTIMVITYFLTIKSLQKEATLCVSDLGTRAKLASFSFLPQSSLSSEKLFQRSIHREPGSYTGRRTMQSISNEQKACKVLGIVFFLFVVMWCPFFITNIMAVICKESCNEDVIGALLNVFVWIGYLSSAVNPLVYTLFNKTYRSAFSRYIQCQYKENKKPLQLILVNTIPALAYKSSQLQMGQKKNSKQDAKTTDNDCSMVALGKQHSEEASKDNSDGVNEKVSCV
Serotonin 2 (5-HT2) receptor, sequence (P41595 whole entry): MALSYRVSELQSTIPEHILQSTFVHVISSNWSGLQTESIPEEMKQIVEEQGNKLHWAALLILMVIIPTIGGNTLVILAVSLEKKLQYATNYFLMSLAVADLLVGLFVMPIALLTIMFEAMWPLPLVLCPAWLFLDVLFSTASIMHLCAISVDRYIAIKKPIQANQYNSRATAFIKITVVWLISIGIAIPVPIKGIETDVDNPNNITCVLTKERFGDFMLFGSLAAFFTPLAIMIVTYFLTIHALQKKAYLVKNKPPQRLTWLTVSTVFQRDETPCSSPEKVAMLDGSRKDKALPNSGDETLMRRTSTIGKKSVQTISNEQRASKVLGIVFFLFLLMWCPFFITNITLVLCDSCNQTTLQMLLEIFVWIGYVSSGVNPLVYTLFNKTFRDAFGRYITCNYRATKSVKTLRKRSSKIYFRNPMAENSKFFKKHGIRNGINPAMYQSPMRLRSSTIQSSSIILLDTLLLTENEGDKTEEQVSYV
Serotonin 2 (5-HT2) receptor, sequence (P28335 whole entry): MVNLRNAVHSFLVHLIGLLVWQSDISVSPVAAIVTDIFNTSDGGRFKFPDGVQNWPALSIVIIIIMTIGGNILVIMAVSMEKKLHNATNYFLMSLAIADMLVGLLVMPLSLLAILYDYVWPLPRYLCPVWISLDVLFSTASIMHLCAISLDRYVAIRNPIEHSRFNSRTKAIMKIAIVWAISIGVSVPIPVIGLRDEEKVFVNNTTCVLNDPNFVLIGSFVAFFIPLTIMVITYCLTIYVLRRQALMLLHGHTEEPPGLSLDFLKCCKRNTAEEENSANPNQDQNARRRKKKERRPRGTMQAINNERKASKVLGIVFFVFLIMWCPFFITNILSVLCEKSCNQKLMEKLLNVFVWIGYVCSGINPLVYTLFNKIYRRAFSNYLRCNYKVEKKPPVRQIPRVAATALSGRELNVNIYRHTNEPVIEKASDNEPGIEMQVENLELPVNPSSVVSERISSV

5-hydroxytryptamine receptor 1B, sequence (P28222 whole entry): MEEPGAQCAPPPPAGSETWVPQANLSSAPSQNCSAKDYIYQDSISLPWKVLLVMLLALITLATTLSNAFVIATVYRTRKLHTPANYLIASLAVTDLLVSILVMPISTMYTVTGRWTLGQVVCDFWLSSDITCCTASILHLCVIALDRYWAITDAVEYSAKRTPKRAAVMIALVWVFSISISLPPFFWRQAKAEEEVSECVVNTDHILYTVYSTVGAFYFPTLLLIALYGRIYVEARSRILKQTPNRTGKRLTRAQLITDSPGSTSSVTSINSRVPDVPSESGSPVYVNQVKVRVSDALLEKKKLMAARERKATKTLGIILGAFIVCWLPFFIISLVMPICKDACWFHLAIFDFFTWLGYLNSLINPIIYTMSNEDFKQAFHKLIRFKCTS

Row | IC50 [1] [nM] | IC50 [2] [nM] | IC50 [3] [nM] | Compound
1 | 100 | 340 | 18000 | CCCN(CCCCNc1ccc([N+](=O)[O-])c2nonc12)C1COc2cccc(OC)c2C1 (stereo not given)
2 | 0.2 | 5000 | 10 | CCCN(CCCCN1C(=O)CC2(CCCC2)CC1=O)C1COc2cccc(OC)c2C1 (stereo not given) [NSC_121851]
3 | 50 | 400 | 30000 | CCCN(CCCCN1C(=O)c2ccccc2C1=O)C1COc2cccc(OC)c2C1 (stereo not given) [2-{4-[(5-Methoxy-chroman-3-yl)-propyl-amino]-butyl}-isoindole-1,3-dione; compound with oxalic acid]
4 | 1 | 1000 | 10000 | CCCN(CCCCN1C(=O)c2ccccc2S1(=O)=O)C1COc2cccc(OC)c2C1 (stereo not given) [2-{4-[(5-Methoxy-chroman-3-yl)-propyl-amino]-butyl}-1,1-dioxo-1,2-dihydro-1lambda*6*-benzo[d]isothiazol-3-one; compound with oxalic acid]
5 | 0.3 | 9 | 15 | CCCN(CCCCNC(=O)c1cc(=O)oc2c3c4c(cc12)CCCN4CCC3)C1COc2cccc(OC)c2C1 (stereo not given)
